In patent publication US7632794B1, “Lens care solutions comprising alkyldimonium hydroxypropyl alkylglucosides” (Bausch & Lomb Incorporated, priority 2008, dated 2009):

Tested on: five microorganisms tested (three bacterium and two fungal strains)
Test: Biocidal efficacy across the microorganisms tested
Assay type: cell-based
Details: aqueous buffered borate solution
Excerpt: Accordingly, a composition containing as little as 75 ppm of S-1218 and 50 ppm of L-1010P is shown to have very strong biocidal activity against all five microorganisms.

Substance | biocidal efficacy (in words)
stearyl dimoniumhydropropyl decylglucoside | relatively high increase in biocidal efficacy
stearyl dimoniumhydropropyl laurylglucoside | relatively high increase in biocidal efficacy
